# Data reported in paper PMC3867298 (Clinical cancer research : an official journal of the …, 2010).
# How the values were obtained:
# [1] = tested on: patients with advanced solid tumors; settings: treatment-related, worst grade per patient, all cycles, N = 67
# [2] = Plasma pharmacokinetics in patients; assay type: in vivo, human; settings: for AUC(0-inf) / Cmax / Tmax / half-life / Vd/F: human, plasma, oral; for Vd/F: 160 mg/m2, Vd/F
# [3] = tested on: MDA-MB-231 breast cancer xenograft; settings: MDA-MB-231 xenograft, with reduced tumor vascularization (CD31); cited from earlier work
# [4] = tested on: advanced solid tumors; assay: Antitumor activity by modified RECIST and CA125; assay type: in vivo, human
# [5] = tested on: phosphohistone H3 (pHH3); assay: Histone H3 phosphorylation in keratinocytes; assay type: in vivo, human; settings: 9 paired skin biopsies at MTD, cycle 1 day 28
# [6] = day 1, 160 mg/m^2, n=8, mean ± SD
# [7] = day 28, 160 mg/m^2, n=5, mean ± SD
compound,measurement,setting,value
Cc1cc(Nc2cc(N3CCN(C)CC3)nc(/C=C/c3ccccc3)n2)n[nH]1 [ENMD-2076],"Mucositis, grade 3, No. of patients",[1],0
same,"Mucositis, grade 4, No. of patients",[1],0
same,"Nausea/vomiting, any grade, No. of patients",[1],26
same,"Nausea/vomiting, grade 3, No. of patients",[1],0
same,"Nausea/vomiting, grade 4, No. of patients",[1],0
same,"Patients reporting related adverse events, grade 3",[1],28%
same,"Patients reporting related adverse events, grade 3, No. of patients",[1],19
same,"Patients reporting related adverse events, grade 4",[1],9%
same,"Patients reporting related adverse events, grade 4, No. of patients",[1],6
same,CL/F,"[2]; day 1, 60 mg/m^2, n=6, mean ± SD",37.9 ± 19.3 L/h
same,CL/F,"[2]; day 1, 80 mg/m^2, n=4, mean ± SD",45.9 ± 13.0 L/h
same,CL/F,"[2]; day 1, 120 mg/m^2, n=3, mean ± SD",64.3 ± 16.9 L/h
same,CL/F,[2]; [6],52.9 ± 18.4 L/h
same,CL/F,"[2]; day 1, 200 mg/m^2, n=5, mean ± SD",41.5 ± 13.3 L/h
same,CL/F,"[2]; day 1, 350 mg/m^2, n=2, mean ± SD",55.2 ± 12.9 L/h
same,CL/F,"[2]; day 28, 60 mg/m^2, n=6, mean ± SD",10.4 ± 7.9 L/h
same,CL/F,"[2]; day 28, 80 mg/m^2, n=3, mean ± SD",10.8 ± 3.3 L/h
same,CL/F,"[2]; day 28, 120 mg/m^2, n=3, mean ± SD",13.0 ± 1.4 L/h
same,CL/F,[2]; [7],9.1 ± 2.9 L/h
same,CL/F,"[2]; day 28, 200 mg/m^2, n=4, mean ± SD",14.0 ± 4.7 L/h
same,AUC(0-inf),"[2]; 60 mg/m2, AUC(0-inf), day 1, 60 mg/m^2, n=6, mean ± SD",3160 ± 1340 ng·h/mL
same,AUC(0-inf),"[2]; 60 mg/m2, AUC(0-inf), day 28, 60 mg/m^2, n=6, mean ± SD",15300 ± 8910 ng·h/mL
same,Cmax,"[2]; 60 mg/m2, Cmax, day 1, 60 mg/m^2, n=6, mean ± SD",64 ± 23 ng/mL
same,Cmax,"[2]; 60 mg/m2, Cmax, day 28, 60 mg/m^2, n=6, mean ± SD",218 ± 95 ng/mL
same,Tmax,"[2]; 60 mg/m2, Tmax, day 1, 60 mg/m^2, n=6, mean ± SD",7.8 ± 7.8 h
same,Tmax,"[2]; 60 mg/m2, Tmax, day 28, 60 mg/m^2, n=6, mean ± SD",4.7 ± 3 h
same,half-life,"[2]; 60 mg/m2, t1/2, day 1, 60 mg/m^2, n=6, mean ± SD",36.4 ± 19.3 h
same,half-life,"[2]; 60 mg/m2, t1/2, day 28, 60 mg/m^2, n=6, mean ± SD",53.1 ± 20.4 h
same,AUC(0-inf),"[2]; 80 mg/m2, AUC(0-inf), day 1, 80 mg/m^2, n=4, mean ± SD",3850 ± 1600 ng·h/mL
same,AUC(0-inf),"[2]; 80 mg/m2, AUC(0-inf), day 28, 80 mg/m^2, n=3, mean ± SD",14700 ± 3780 ng·h/mL
same,Cmax,"[2]; 80 mg/m2, Cmax, day 1, 80 mg/m^2, n=4, mean ± SD",101 ± 59 ng/mL
same,Cmax,"[2]; 80 mg/m2, Cmax, day 28, 80 mg/m^2, n=3, mean ± SD",233 ± 76 ng/mL
same,Tmax,"[2]; 80 mg/m2, Tmax, day 1, 80 mg/m^2, n=4, mean ± SD",4 ± 1.6 h
same,Tmax,"[2]; 80 mg/m2, Tmax, day 28, 80 mg/m^2, n=3, mean ± SD",3.4 ± 1.2 h
same,half-life,"[2]; 80 mg/m2, t1/2, day 1, 80 mg/m^2, n=4, mean ± SD",31.8 ± 7.6 h
same,half-life,"[2]; 80 mg/m2, t1/2, day 28, 80 mg/m^2, n=3, mean ± SD",51 ± 18.7 h
same,AUC(0-inf),"[2]; 120 mg/m2, AUC(0-inf), day 1, 120 mg/m^2, n=3, mean ± SD",3590 ± 1260 ng·h/mL
same,AUC(0-inf),"[2]; 120 mg/m2, AUC(0-inf), day 28, 120 mg/m^2, n=3, mean ± SD",16700 ± 1120 ng·h/mL
same,Cmax,"[2]; 120 mg/m2, Cmax, day 1, 120 mg/m^2, n=3, mean ± SD",93 ± 14 ng/mL
same,Cmax,"[2]; 120 mg/m2, Cmax, day 28, 120 mg/m^2, n=3, mean ± SD",314 ± 73 ng/mL
same,Tmax,"[2]; 120 mg/m2, Tmax, day 1, 120 mg/m^2, n=3, mean ± SD",6 ± 3.5 h
same,Tmax,"[2]; 120 mg/m2, Tmax, day 28, 120 mg/m^2, n=3, mean ± SD",2.7 ± 3.2 h
same,half-life,"[2]; 120 mg/m2, t1/2, day 1, 120 mg/m^2, n=3, mean ± SD",27.3 ± 5.8 h
same,half-life,"[2]; 120 mg/m2, t1/2, day 28, 120 mg/m^2, n=3, mean ± SD",44.9 ± 8.6 h
same,AUC(0-inf),"[2]; 160 mg/m2, AUC(0-inf), day 1, 160 mg/m^2, n=8, mean ± SD",5940 ± 2410 ng·h/mL
same,AUC(0-inf),"[2]; 160 mg/m2, AUC(0-inf), day 28, 160 mg/m^2, n=5, mean ± SD",34600 ± 16500 ng·h/mL
same,Cmax,"[2]; 160 mg/m2, Cmax, day 1, 160 mg/m^2, n=8, mean ± SD",157 ± 52 ng/mL
same,Cmax,"[2]; 160 mg/m2, Cmax, day 28, 160 mg/m^2, n=5, mean ± SD",558 ± 222 ng/mL
same,Tmax,"[2]; 160 mg/m2, Tmax, day 1, 160 mg/m^2, n=8, mean ± SD",3.5 ± 1.4 h
same,Tmax,"[2]; 160 mg/m2, Tmax, day 28, 160 mg/m^2, n=5, mean ± SD",4.4 ± 2.1 h
same,Vd/F,[2]; [6],2020 ± 388 L
same,Vd/F,[2]; [7],600 ± 229 L
same,half-life,"[2]; 160 mg/m2, t1/2, day 1, 160 mg/m^2, n=8, mean ± SD",28.6 ± 8.4 h
same,half-life,"[2]; 160 mg/m2, t1/2, day 28, 160 mg/m^2, n=5, mean ± SD",46.1 ± 9.5 h
same,AUC(0-inf),"[2]; 200 mg/m2, AUC(0-inf), day 1, 200 mg/m^2, n=5, mean ± SD",10600 ± 4900 ng·h/mL
same,AUC(0-inf),"[2]; 200 mg/m2, AUC(0-inf), day 28, 200 mg/m^2, n=4, mean ± SD",34500 ± 18300 ng·h/mL
same,Cmax,"[2]; 200 mg/m2, Cmax, day 1, 200 mg/m^2, n=5, mean ± SD",229 ± 65 ng/mL
same,Cmax,"[2]; 200 mg/m2, Cmax, day 28, 200 mg/m^2, n=4, mean ± SD",557 ± 191 ng/mL
same,Tmax,"[2]; 200 mg/m2, Tmax, day 1, 200 mg/m^2, n=5, mean ± SD",4 ± 2.4 h
same,Tmax,"[2]; 200 mg/m2, Tmax, day 28, 200 mg/m^2, n=4, mean ± SD",4.5 ± 2.5 h
same,half-life,"[2]; 200 mg/m2, t1/2, day 1, 200 mg/m^2, n=5, mean ± SD",38.3 ± 10 h
same,half-life,"[2]; 200 mg/m2, t1/2, day 28, 200 mg/m^2, n=4, mean ± SD",47.6 ± 12.7 h
same,AUC(0-inf),"[2]; 350 mg/m2, AUC(0-inf), day 1, 350 mg/m^2, n=2, mean ± SD",12200 ± 5100 ng·h/mL
same,Cmax,"[2]; 350 mg/m2, Cmax, day 1, 350 mg/m^2, n=2, mean ± SD",300 ± 18 ng/mL
same,Tmax,"[2]; 350 mg/m2, Tmax, day 1, 350 mg/m^2, n=2, mean ± SD",3 ± 1.4 h
same,half-life,"[2]; 350 mg/m2, t1/2, day 1, 350 mg/m^2, n=2, mean ± SD",31.1 ± 14.4 h
same,half-life,"[2]; Mean terminal phase elimination half-life (t1/2), range, after a single dose",27.3 to 38.3 h
same,Tmax,"[2]; Tmax, range over all dose levels, day 28",2.7 to 4.7 h
same,Tumor response,[3],regressions
same,Colorectal cancer patients with SD ≥ 12 weeks,"[4]; 19 colorectal cancer patients, 5 patients",26%
same,Ovarian cancer patients with PR or SD ≥ 12 weeks,"[4]; 20 ovarian cancer patients, all dose levels, twelve patients",60%
same,Partial responses (PR) as best response,"[4]; 58 evaluable patients, 2 patients, 1 confirmed, both ovarian cancer",3%
same,Progressive disease (PD) as best response,"[4]; 58 evaluable patients, 7 patients",12%
same,Patients with decreases in tumor measurements from baseline not qualifying as PR,[4]; twenty patients,30%
same,Paired biopsies in which pHH3-positive cells decreased posttreatment,[5],3 samples
same,Paired biopsies in which pHH3-positive cells increased,[5],2 samples
same,Paired biopsies in which pHH3-positive cells remained the same,[5],4 samples
